Assays:
[1] = tested on: Daudi cells (pre-B cell line); assay: IFN-γ ELISpot with Daudi cells; format: cell-based; conditions: 10^5 cells/well, 16 hours
Method: Daudi cells (pre-B cell line) were incubated on IFN-γ-ELISpot plates in the presence of IL-21, CpG ODN, B cell receptor stimulation or various combinations at a cell concentration of 10^5 cells/well. After 16 hours plates were developed and analyzed.

B-CLL cells [2] = assay: Intracellular flow cytometry for Granzyme B, Granzyme A and Perforin in B-CLL cells; format: cell-based, human; conditions: 18 hours, Brefeldin A for the last hours
Method: Flow cytometry. […] For flow cytometric Granzyme and Perforin detection, cells were incubated at 1×10^6/ml for 13 hrs, Brefeldin A (Epicentre Technologies, Madison, Wis.) added to a final concentration of 1 mg/ml, and cells cultured for 5 more hours. Intracellular staining was performed using a Fix and Perm kit (Caltag Laboratories, Burlingame, Calif.) according to the manufacturer's instructions. Briefly, cells were washed once and resuspended in Fixation Buffer, incubated for 15 minutes at room temperature and washed with PBS. Cells were then resuspended in Permeabilization Buffer and PE- or FITC-labeled antibodies to Granzyme B (clone GB12; Caltag Laboratories), Perforin (clone dG9; BD Pharmingen), Granzyme A (clone CB9; BD Pharmingen) or suitable control antibodies were added. After another 15 minute incubation at room temperature, cells were washed with PBS. Flow cytometric analyses were performed on a FACScan (Becton Dickinson Immunocytometry Systems, San Jose, Calif.) and data analyzed using the program FlowJo (version 6.4.1, Tree Star Inc., Stanford, Calif.).

[3] = tested on: untreated, bystander B-CLL cells; assay: Bystander cell killing assay with autologous B-CLL cells; format: cell-based, human; conditions: 24 hours treatment, washed, 2 days co-culture
Method: Bystander cell assay. Cells were harvested from CLL subjects and separated into aliquots. One aliquot was treated with CpG ODN, IL-21 or both, while a second was untreated but labeled with a membrane dye. Both aliquots were washed thoroughly, and mixed together in the indicated ratio. Cells were harvested after two days, and the number of viable cells in each aliquot determined by gating on the stained or unstained cells.
(§1) Flow cytometry. Antibodies to CD5, CD19, CD27 as well as CD107a were purchased from BD Bioscoences (San Diego, Calif.). IL-21 receptor protein expression was detected using a mAB (clone 152512) from R&D Systems (Minneapolis, Minn.). PKH26 staining was used to identify untreated cells in bystander assays. B-CLL cells were resuspended at a density of 1×10^7 cells/ml in diluent C containing 2 μM PKH26 (both from Sigma, Saint Louis, Mo.). […] Flow cytometric analyses were performed on a FACScan (Becton Dickinson Immunocytometry Systems, San Jose, Calif.) and data analyzed using the program FlowJo (version 6.4.1, Tree Star Inc., Stanford, Calif.).
B-CLL cells treated with CpG ODN and IL-21 can kill untreated autologous cells. […] The inventors next evaluated whether B-CLL cells treated with IL-21 and CpG ODN have the potential to kill. […] The survival of the unstained, untreated cells was then evaluated by flow cytometry.

B-CLL cells [4] = assay: Flow cytometric apoptosis / cell survival assay (Annexin V, PI) of B-CLL cells; format: cell-based, human
Method: Apoptosis and cell survival assay. Cells were harvested at the indicated time points by staining all cells from a given well with mAb for CD19, CD5 and FITC-labeled Annexin V (BD Biosciences, San Diego, Calif.). A predetermined number of calibration beads (CaliBRITE™ Beads, BD Biosciences, San Diego, Calif.) were then added to each sample to allow for normalization of cell counts in different samples at different time points.
(§2) Flow cytometric apoptosis assays. Cells were stained with Annexin V (BD Biosciences, San Diego, Calif.), or cell-permeable fluorogenic substrates specific for Granzyme B or Caspase 6 for 1 hour at room temperature according to the manufacturer's instructions (Oncolmmunin, Gaithersburg. Md.). A pre-determined number of calibration beads (CaliBRITE™ Beads, BD Biosciences, San Diego, Calif.) was added to each sample to allow for normalization of cell counts at different time points. Propidium iodide at 1 μg/ml was added just prior to flow cytometric analysis. The count of viable cells rather than the count of apoptotic cells was used for the calculation of cell survival because of concerns some non-viable cells may have undergone lysis and not have been available for counting. Absolute cell survival was expressed as percentage of viable cell counts relative to initial plating counts.

Purified B cells = assay: RT-PCR for granzyme B and perforin in purified B cells; format: cell-based, human; conditions: 18 hours, with or without anti-BCR antibodies
Method: Purified B cells (purity >99.9%) were cultured for 18 hours in the presence or absence of IL-21 and B cell receptor stimulation (anti-BCR antibodies). Subsequently RNA was isolated and real time RT-PCR with specific primers and probes for granzyme B and perforin was performed. In addition to real time RT-PCR, conventional RT-PCR was also performed and PCR products were run on a gel. The expected amplicon sized are 218 bp (base pairs) and 146 bp for granzyme B and perforin respectively.

benign B cells = assay: Apoptosis / cell survival assay of benign B cells; format: cell-based, human; conditions: 3 days of culture
Method: as §2, with “Apoptosis and cell survival assay. Cells were harvested at the indicated time points by staining all cells from a given well with mAb for CD19, CD5 and FITC-labeled Annexin V (BD Biosciences, San Diego, Calif.). A predetermined number of calibration beads (CaliBRITE™ Beads, BD Biosciences, San Diego, Calif.) were then added to each sample to allow for normalization of cell counts in different samples at different time points. Flow” for “Flow”

[5] = tested on: benign peripheral blood B cells; assay: Granzyme B flow cytometry and ELISpot with purified benign peripheral B cells; format: cell-based, human
Method: as §1, with “Mo.). After 3 minutes, the reaction was stopped by adding an equal volume of FBS (HyClone, Ogden, Utah). Subsequently cells were washed 3 times and finally resuspended in AIM-V medium. For flow cytometric Granzyme and Perforin detection, cells were incubated at 1×10^6/ml for 13 hrs, Brefeldin A (Epicentre Technologies, Madison, Wis.) added to a final concentration of […], and cells cultured for 5 more hours.” for “Mo.).”
Elispot assays for human Granzyme B and Perforin. […] Plates were dried completely, and spots read on an Immunospot Series 1 Analyzer and counted using Immunospot 3 software, both from C.T.L. Cellular Technology Ltd. (Cleveland, Ohio).

IL-21 receptor = assay: Flow cytometry of IL-21 receptor protein on B-CLL cells; format: cell-based, human; conditions: after 4 and 7 days of incubation, ODN 2.5 μg/ml, FACS
Method: Flow cytometry. Antibodies to CD5, CD19, CD27 as well as CD107a were purchased from BD Bioscoences (San Diego, Calif.). IL-21 receptor protein expression was detected using a mAB (clone 152512) from R&D Systems (Minneapolis, Minn.). PKH26 staining was used to identify untreated cells in bystander assays. B-CLL cells were resuspended at a density of 1×10^7 cells/ml in diluent C containing 2 μM PKH26 (both from Sigma, Saint Louis, Mo.). After 3 minutes, the reaction was stopped by adding an equal volume of FBS (HyClone, Ogden, Utah). Subsequently cells were washed 3 times and finally resuspended in AIM-V medium. For flow cytometric Granzyme and Perforin detection, cells were incubated at 1×10^6/ml for 13 hrs, Brefeldin A (Epicentre Technologies, Madison, Wis.) added to a final concentration of […], and cells cultured for 5 more hours. Intracellular staining was performed using a Fix and Perm kit (Caltag Laboratories, Burlingame, Calif.) according to the manufacturer's instructions. Briefly, cells were washed once and resuspended in Fixation Buffer, incubated for 15 minutes at room temperature and washed with PBS. […] Flow cytometric analyses were performed on a FACScan (Becton Dickinson Immunocytometry Systems, San Jose, Calif.) and data analyzed using the program FlowJo (version 6.4.1, Tree Star Inc., Stanford, Calif.).

Row | Substance | secretion of interferon-γ by Daudi cells [1] | Granzyme B(+) B-CLL cells, flow cytometry gating on CD19(+) (B-CLL cells [2]) | killing of untreated autologous bystander B-CLL cells by treated B-CLL cells [3] | apoptosis of B-CLL cells (B-CLL cells [4]; 4 days, Annexin V and PI) | ED50 to induce apoptosis of B-CLL cells (B-CLL cells [4]; agent alone, 4 days) [µg/mL] | apoptosis of CD5-negative, atypical B-CLL (B-CLL cells [4]; preliminary, unpublished results) | transcription of the gene for granzyme B in B cells (Purified B cells) | transcription of the gene for perforin in B cells (Purified B cells) | apoptosis of benign B cells (benign B cells) | Granzyme B expression by highly purified (99.9%) benign B cells [5] | IL-21 receptor protein levels on B-CLL cells (IL-21 receptor)
1 | IL-21: cytokine of 131 residues (SEQ ID NO:1); Human IL-21 purchased from BioSource | induces the secretion | rare Granzyme B(+) B cells | No such bystander effect | induced some apoptosis | 0.04 | do not undergo apoptosis | induces transcription | induces transcription | Neither IL-21 alone nor IL-21 plus CpG ODN induced apoptosis | induced expression of Granzyme B | 
2 | control ODN: phosphorothioate-phosphodiester-modified control oligodeoxynucleotide 2243, 5′-GGGGGAGCATGCTGGGGGGG-3′ (SEQ ID NO:5) (DNA GGGGGAGCATGCTGGGGGGG; DNA, backbone and methylation of C not given here; phosphorothioate-phosphodiester chimeric backbone) |  |  |  |  |  |  |  |  |  |  | no detectable effect

Reference: US20070071717A1, “Treatment of B cells with IL-21 and B cell activators induces Granzyme B production” (University of Iowa Research Foundation, priority 2005, published 2007)
